# Reference: publication PMC3961306, “Comparison of the Cancer Gene Targeting and Biochemical Selectivities of All Targeted Kinase Inhibitors Approved for Clinical Use” (PLoS ONE, 2014)
# Legend:
# Assay in all cases: Kinase profiling in a biochemical assay panel (mobility shift assays and ELISA), %-inhibition at 1 μM; selectivity entropy
# [1] = target: panel of more than 300 wild-type and mutant kinases (313 kinase panel) (Homo sapiens, UniProt O75914); settings: kinase PAK3; 1 μM
# [2] = target: T1, panel of more than 300 wild-type and mutant kinases (313 kinase panel) (Homo sapiens, UniProt O00444)
# T1 sequence (O00444 1-970): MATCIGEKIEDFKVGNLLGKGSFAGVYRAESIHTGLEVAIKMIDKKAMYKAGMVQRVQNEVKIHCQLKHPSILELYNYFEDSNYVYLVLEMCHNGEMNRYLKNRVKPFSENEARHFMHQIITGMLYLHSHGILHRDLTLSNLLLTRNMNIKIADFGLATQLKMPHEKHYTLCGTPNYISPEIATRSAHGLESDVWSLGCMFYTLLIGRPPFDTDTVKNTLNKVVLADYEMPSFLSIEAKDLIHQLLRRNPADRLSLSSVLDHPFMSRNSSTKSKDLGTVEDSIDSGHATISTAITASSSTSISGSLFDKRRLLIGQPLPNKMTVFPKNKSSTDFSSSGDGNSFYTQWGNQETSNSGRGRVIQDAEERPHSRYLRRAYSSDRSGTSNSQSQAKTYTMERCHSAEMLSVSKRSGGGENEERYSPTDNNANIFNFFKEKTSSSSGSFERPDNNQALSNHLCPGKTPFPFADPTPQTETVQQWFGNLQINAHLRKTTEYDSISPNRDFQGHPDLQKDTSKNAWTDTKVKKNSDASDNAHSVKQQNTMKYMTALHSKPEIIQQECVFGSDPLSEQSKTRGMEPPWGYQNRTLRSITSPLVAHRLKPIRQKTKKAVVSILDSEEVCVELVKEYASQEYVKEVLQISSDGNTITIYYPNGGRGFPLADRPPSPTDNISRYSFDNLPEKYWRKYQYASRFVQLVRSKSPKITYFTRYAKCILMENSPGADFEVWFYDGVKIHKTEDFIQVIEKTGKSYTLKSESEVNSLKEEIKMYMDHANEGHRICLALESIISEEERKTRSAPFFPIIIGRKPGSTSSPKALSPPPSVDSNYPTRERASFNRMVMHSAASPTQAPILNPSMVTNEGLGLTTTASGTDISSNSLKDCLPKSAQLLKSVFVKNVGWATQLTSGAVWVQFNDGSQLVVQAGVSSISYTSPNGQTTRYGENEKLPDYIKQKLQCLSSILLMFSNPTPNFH
# [3] = target: panel of more than 300 wild-type and mutant kinases (313 kinase panel) (Homo sapiens, UniProt P00533); settings: kinase EGFR; compound at 1 μM
# [4] = target: panel of more than 300 wild-type and mutant kinases (313 kinase panel) (Homo sapiens, UniProt P00533, L858R/T790M); settings: kinase EGFR(T790M/L858R); compound at 1 μM
# [5] = target: panel of more than 300 wild-type and mutant kinases (313 kinase panel) (Homo sapiens, UniProt P00533, L861Q); settings: kinase EGFR(L861Q); compound at 1 μM
# [6] = target: panel of more than 300 wild-type and mutant kinases (313 kinase panel) (Homo sapiens, UniProt P00533, T790M); settings: kinase EGFR(T790M); compound at 1 μM
# [7] = target: panel of more than 300 wild-type and mutant kinases (313 kinase panel) (Homo sapiens, UniProt P09619); settings: kinase PDGFRβ; 1 μM
# [8] = target: panel of more than 300 wild-type and mutant kinases (313 kinase panel) (Homo sapiens, UniProt P00519); settings: kinase ABL; 1 μM compound
# [9] = target: panel of more than 300 wild-type and mutant kinases (313 kinase panel) (Homo sapiens, UniProt P00519, T315I); settings: kinase ABL(T315I); 1 μM compound
# [10] = target: panel of more than 300 wild-type and mutant kinases (313 kinase panel) (Homo sapiens, UniProt P35968); settings: kinase KDR; compound at 1 μM
# Chain of panel of more than 300 wild-type and mutant kinases (313 kinase panel) (Homo sapiens, UniProt O75914) (O75914 whole entry, change not shown): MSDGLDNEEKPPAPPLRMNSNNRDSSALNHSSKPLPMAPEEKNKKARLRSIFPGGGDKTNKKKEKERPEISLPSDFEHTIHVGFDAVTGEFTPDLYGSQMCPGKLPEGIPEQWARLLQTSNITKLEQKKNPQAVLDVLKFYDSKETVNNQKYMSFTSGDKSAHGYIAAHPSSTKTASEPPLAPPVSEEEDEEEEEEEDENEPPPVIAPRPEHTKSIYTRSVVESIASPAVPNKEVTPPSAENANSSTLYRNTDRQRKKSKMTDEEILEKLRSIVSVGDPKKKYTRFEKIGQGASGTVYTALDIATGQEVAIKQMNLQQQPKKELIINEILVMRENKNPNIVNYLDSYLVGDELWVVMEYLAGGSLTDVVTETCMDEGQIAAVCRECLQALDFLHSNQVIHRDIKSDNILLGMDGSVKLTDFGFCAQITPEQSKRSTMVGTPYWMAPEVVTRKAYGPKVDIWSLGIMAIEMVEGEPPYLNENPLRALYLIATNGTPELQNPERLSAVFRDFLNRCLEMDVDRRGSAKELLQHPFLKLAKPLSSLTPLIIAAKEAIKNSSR
# Chain of panel of more than 300 wild-type and mutant kinases (313 kinase panel) (Homo sapiens, UniProt P00533, L861Q) (P00533 25-1210 L861Q): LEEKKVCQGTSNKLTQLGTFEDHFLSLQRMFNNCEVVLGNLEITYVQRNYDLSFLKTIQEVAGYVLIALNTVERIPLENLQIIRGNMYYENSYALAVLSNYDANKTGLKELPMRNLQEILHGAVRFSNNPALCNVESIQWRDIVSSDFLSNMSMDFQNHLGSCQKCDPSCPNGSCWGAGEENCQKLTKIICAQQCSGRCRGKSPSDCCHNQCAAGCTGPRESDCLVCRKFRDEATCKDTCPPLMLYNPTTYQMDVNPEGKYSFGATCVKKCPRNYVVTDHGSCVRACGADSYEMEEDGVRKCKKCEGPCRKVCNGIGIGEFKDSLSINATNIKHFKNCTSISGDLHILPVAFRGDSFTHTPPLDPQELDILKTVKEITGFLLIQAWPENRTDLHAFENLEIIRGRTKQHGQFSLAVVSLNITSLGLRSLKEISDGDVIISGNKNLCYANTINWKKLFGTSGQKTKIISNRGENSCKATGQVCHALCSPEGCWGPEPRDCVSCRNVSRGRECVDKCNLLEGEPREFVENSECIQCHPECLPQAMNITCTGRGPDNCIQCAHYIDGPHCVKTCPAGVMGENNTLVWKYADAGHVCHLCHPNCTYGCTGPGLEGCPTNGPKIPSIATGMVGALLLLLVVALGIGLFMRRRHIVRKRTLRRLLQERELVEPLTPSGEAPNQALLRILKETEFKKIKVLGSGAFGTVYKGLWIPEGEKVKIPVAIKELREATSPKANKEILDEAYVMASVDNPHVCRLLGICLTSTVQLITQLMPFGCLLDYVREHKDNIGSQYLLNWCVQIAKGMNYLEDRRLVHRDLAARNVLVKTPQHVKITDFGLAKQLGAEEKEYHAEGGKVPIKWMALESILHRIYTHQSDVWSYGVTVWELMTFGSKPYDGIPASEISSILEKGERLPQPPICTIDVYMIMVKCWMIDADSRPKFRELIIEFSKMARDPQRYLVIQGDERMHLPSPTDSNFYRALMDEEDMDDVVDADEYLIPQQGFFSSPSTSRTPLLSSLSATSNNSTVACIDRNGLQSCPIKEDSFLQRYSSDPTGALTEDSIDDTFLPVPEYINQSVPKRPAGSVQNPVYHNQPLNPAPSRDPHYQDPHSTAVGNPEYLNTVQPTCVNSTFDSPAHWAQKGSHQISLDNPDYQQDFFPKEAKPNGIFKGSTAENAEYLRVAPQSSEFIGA
# Chain of panel of more than 300 wild-type and mutant kinases (313 kinase panel) (Homo sapiens, UniProt P00533, T790M) (P00533 25-1210 T790M): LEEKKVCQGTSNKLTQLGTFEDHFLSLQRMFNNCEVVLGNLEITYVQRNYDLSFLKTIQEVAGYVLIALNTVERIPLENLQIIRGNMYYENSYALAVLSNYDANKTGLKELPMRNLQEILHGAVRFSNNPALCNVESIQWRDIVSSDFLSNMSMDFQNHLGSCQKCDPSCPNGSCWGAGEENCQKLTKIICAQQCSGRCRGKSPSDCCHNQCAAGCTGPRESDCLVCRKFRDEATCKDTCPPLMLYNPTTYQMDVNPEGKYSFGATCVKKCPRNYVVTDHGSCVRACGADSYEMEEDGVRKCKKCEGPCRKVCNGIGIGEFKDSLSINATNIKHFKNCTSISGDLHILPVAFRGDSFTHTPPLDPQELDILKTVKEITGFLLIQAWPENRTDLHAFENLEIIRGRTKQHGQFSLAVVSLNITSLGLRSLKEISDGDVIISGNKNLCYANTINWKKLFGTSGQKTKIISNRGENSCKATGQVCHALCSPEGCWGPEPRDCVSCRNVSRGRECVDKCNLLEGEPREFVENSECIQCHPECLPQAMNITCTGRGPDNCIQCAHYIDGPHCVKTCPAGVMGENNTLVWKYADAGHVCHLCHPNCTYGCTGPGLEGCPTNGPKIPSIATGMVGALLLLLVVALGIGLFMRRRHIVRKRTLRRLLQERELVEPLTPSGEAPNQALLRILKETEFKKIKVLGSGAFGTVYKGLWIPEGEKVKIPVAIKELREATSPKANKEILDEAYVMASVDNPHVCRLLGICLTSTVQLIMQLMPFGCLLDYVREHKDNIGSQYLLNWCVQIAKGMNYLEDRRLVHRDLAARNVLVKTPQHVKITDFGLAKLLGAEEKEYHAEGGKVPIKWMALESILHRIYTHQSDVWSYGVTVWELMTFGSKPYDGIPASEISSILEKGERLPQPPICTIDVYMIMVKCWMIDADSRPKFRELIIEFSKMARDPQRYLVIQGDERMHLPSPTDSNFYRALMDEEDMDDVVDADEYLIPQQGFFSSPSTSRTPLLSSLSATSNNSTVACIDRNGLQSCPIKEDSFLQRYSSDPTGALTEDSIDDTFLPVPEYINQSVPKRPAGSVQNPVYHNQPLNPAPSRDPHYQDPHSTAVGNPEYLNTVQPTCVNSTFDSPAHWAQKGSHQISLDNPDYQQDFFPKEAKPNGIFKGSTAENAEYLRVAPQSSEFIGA
# Chain of panel of more than 300 wild-type and mutant kinases (313 kinase panel) (Homo sapiens, UniProt P00533) (P00533 25-1210, stated change not applied): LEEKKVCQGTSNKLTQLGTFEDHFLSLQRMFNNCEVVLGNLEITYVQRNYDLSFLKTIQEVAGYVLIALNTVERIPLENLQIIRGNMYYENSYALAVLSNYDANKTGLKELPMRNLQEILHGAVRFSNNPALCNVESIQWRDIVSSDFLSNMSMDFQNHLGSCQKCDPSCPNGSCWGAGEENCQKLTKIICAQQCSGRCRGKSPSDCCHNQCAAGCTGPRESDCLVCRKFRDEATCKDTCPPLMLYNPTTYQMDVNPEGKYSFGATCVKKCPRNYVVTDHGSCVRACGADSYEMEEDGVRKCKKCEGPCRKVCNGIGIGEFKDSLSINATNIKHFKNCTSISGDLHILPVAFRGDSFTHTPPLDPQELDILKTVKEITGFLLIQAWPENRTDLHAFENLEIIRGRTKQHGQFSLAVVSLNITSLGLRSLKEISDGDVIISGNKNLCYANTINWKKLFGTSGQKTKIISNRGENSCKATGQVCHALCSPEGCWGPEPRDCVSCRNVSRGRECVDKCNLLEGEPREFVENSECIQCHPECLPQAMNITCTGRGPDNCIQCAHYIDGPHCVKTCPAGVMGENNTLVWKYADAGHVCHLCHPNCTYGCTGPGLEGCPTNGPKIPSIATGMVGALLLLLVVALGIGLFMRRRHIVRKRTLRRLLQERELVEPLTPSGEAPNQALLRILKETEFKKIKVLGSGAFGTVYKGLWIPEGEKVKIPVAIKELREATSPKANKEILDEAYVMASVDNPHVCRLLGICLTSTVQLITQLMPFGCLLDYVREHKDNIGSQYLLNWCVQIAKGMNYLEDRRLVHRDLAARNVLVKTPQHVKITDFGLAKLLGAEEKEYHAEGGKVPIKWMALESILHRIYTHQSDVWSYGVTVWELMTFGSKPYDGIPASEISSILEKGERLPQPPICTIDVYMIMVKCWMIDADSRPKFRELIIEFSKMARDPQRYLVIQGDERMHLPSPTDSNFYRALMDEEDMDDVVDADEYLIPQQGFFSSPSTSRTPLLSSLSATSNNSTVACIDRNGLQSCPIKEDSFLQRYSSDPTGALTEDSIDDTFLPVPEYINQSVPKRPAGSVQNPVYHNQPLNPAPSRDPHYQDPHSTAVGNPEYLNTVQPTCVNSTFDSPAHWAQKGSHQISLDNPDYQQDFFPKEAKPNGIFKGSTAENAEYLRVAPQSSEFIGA
structure (smiles),measurement,setting,value
Cc1nc(Nc2ncc(C(=O)Nc3c(C)cccc3Cl)s2)cc(N2CCN(CCO)CC2)n1 [dasatinib],%-inhibition of PAK3,[1],-1.28%
Cc1ccc(Nc2nccc(N(C)c3ccc4c(C)n(C)nc4c3)n2)cc1S(N)(=O)=O [pazopanib],%-inhibition of PLK4,"[2]; kinase PLK4, 1 μM",72%
same,%-inhibition of PAK3,[1],6%
same,%-inhibition of EGFR,[3],17%
same,%-inhibition of EGFR(T790M/L858R),[4],43%
same,%-inhibition of EGFR(L861Q),[5],13%
same,%-inhibition of EGFR(T790M),[6],5%
same,%-inhibition of PDGFRβ,[7],96%
CS(=O)(=O)CCNCc1ccc(-c2ccc3ncnc(Nc4ccc(OCc5cccc(F)c5)c(Cl)c4)c3c2)o1 [lapatinib],%-inhibition of PLK4,[2]; 1 µM,-4.47%
same,%-inhibition of PAK3,[1],4.27%
same,"%-inhibition, ABL",[8],17%
same,"%-inhibition, ABL(T315I)",[9],9%
same,%-inhibition of PDGFRβ,[7],2.84%
Cc1cn(-c2cc(NC(=O)c3ccc(C)c(Nc4nccc(-c5cccnc5)n4)c3)cc(C(F)(F)F)c2)cn1 [nilotinib],%-inhibition of PLK4,"[2]; kinase PLK4, 1 μM",21%
same,%-inhibition of PAK3,[1],-4%
same,%-inhibition of EGFR,[3],17%
same,%-inhibition of EGFR(L861Q),[5],11%
same,%-inhibition of EGFR(T790M),[6],7.54%
same,%-inhibition of KDR,[10],22%
